Laboratory results taken from patent US20230085307A1, “PYRIDAZINONE COMPOUND AND HERBICIDE” (NISSAN CHEMICAL CORPORATION, priority 2019, published 2023).

Tests used:
barnyard grass [1] = assay: Test Example 3: herbicidal effect by foliage application, Wagner pot (Table 18, symbol H); type: in vivo, barnyard grass (Echinochloa crus-galli); conditions: for herbicidal effect on barnyard grass (H): 320 g/ha
Procedure, shortened: (§1)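 Plants were sown in alluvial soil held under 0.1–0.5 cm standing water and grown 14 days in a greenhouse at 25–30 °C. An emulsifiable formulation, water-diluted to the set dose, was then sprayed onto the foliage, and effects were scored three weeks later using previously defined criteria.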

Chinese sprangletop = assay: Test Example 3: herbicidal effect by foliage application, Wagner pot (Table 18, symbol D); type: in vivo, chinese sprangletop (Leptochloa chinensis); conditions: for herbicidal effect on Chinese sprangletop (D): 320 g/ha
Procedure, shortened: as §1

rice flat sedge = assay: Test Example 3: herbicidal effect by foliage application, Wagner pot (Table 18, symbol E); type: in vivo, rice flat sedge (Cyperus iria); conditions: for herbicidal effect on rice flat sedge (E): 320 g/ha
Procedure, shortened: as §1

southern crabgrass = assay: Test Example 5: herbicidal effect by foliage application, plastic box (Table 20, symbol F); type: in vivo, southern crabgrass (Digitaria ciliaris)
Procedure, shortened: (§2)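 Foliar spray test: emulsion formulation diluted in water to a set application rate, sprayed onto 14-day-old plants raised in diluvial soil at 25° C to 30° C under glass. Both herbicidal effect and crop effect rated visually three weeks later.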

green foxtail = assay: Test Example 5: herbicidal effect by foliage application, plastic box (Table 20, symbol G); type: in vivo, green foxtail (Setaria viridis)
Procedure, shortened: as §2

barnyard grass [2] = assay: Test Example 5: herbicidal effect by foliage application, plastic box (Table 20, symbol H); type: in vivo, barnyard grass (Echinochloa crus-galli)
Procedure, shortened: as §2

wild oat = assay: Test Example 5: herbicidal effect by foliage application, plastic box (Table 20, symbol I); type: in vivo, wild oat (Avena fatua)
Procedure, shortened: as §2

blackgrass = assay: Test Example 5: herbicidal effect by foliage application, plastic box (Table 20, symbol J); type: in vivo, blackgrass (Alopecurus myosuroides)
Procedure, shortened: as §2

Italian ryegrass = assay: Test Example 5: herbicidal effect by foliage application, plastic box (Table 20, symbol K); type: in vivo, Italian ryegrass (Lolium multiflorum)
Procedure, shortened: as §2

windgrass = assay: Test Example 5: herbicidal effect by foliage application, plastic box (Table 20, symbol L); type: in vivo, windgrass (Apera spica-venti)
Procedure, shortened: as §2

velvetleaf = assay: Test Example 5: herbicidal effect by foliage application, plastic box (Table 20, symbol M); type: in vivo, velvetleaf (Abutilon theophrasti)
Procedure, shortened: as §2

redroot pigweed = assay: Test Example 5: herbicidal effect by foliage application, plastic box (Table 20, symbol N); type: in vivo, redroot pigweed (Amaranthus retroflexus)
Procedure, shortened: as §2

lambsquarters = assay: Test Example 5: herbicidal effect by foliage application, plastic box (Table 20, symbol O); type: in vivo, lambsquarters (Chenopodium album)
Procedure, shortened: as §2

chickweed = assay: Test Example 5: herbicidal effect by foliage application, plastic box (Table 20, symbol P); type: in vivo, common chickweed (Stellaria media)
Procedure, shortened: as §2

persian speedwell = assay: Test Example 5: herbicidal effect by foliage application, plastic box (Table 20, symbol R); type: in vivo, Persian speedwell (Veronica persica)
Procedure, shortened: as §2

[3] = 320 g/ha, foliage application after 14-day growth, evaluated three weeks after application
[4] = amount of applied herbicide 320 g/ha
[5] = foliage application, 320 g/ha, three weeks after application
[6] = amount of applied herbicide 320 g/ha, foliage application after 14-day growth, evaluated three weeks after application

C#CCOc1c(C)nn(C)c(=O)c1-c1c(-c2ccccc2OC)sc2cc(OC)ccc12 [3-154]
herbicidal effect on barnyard grass (H) (barnyard grass [1]): 3 (Herbicidal rate of 40% or more and less than 70%)
herbicidal effect on Chinese sprangletop (D) (Chinese sprangletop): 2 (Herbicidal rate of 20% or more and less than 40%)
herbicidal effect on rice flat sedge (E) (rice flat sedge): 3 (Herbicidal rate of 40% or more and less than 70%)
herbicidal effect on F: southern crabgrass (evaluation grade 0-5) (southern crabgrass; [3]): 0 (Herbicidal rate of 5% or less (almost no effect))
herbicidal effect on G: green foxtail (evaluation grade 0-5) (green foxtail; [3]): 3 (Herbicidal rate of 40% or more and less than 70%)
herbicidal effect on H: barnyard grass (evaluation grade 0-5) (barnyard grass [2]; [3]): 3 (Herbicidal rate of 40% or more and less than 70%)
herbicidal effect on I: wild oat (evaluation grade 0-5) (wild oat; [3]): 0 (Herbicidal rate of 5% or less (almost no effect))
herbicidal effect on J: blackgrass (evaluation grade 0-5) (blackgrass; [3]): 0 (Herbicidal rate of 5% or less (almost no effect))
herbicidal effect on K: Italian ryegrass (evaluation grade 0-5) (Italian ryegrass; [3]): 0 (Herbicidal rate of 5% or less (almost no effect))
herbicidal effect on L: windgrass (evaluation grade 0-5) (windgrass; [3]): 0 (Herbicidal rate of 5% or less (almost no effect))
herbicidal effect on M: velvetleaf (evaluation grade 0-5) (velvetleaf; [3]): 0 (Herbicidal rate of 5% or less (almost no effect))
herbicidal effect on N: redroot pigweed (evaluation grade 0-5) (redroot pigweed; [3]): 4 (Herbicidal rate of 70% or more and less than 90%)
herbicidal effect on O: lambsquarters (evaluation grade 0-5) (lambsquarters; [3]): 3 (Herbicidal rate of 40% or more and less than 70%)
herbicidal effect on P: chickweed (evaluation grade 0-5) (chickweed; [3]): 5 (Herbicidal rate of 90% or more (almost completely withered))
herbicidal effect on R: persian speedwell (evaluation grade 0-5) (persian speedwell; [3]): 3 (Herbicidal rate of 40% or more and less than 70%)

COc1ccccc1-c1sc2cc(F)ccc2c1-c1c(OC(=O)c2ccccc2C)c(C)nn(C)c1=O [3-022]
herbicidal effect on H: barnyard grass (barnyard grass [1]; [4]): 4 (Herbicidal rate of 70% or more and less than 90%)
herbicidal effect on D: Chinese sprangletop (Chinese sprangletop; [4]): 2 (Herbicidal rate of 20% or more and less than 40%)
herbicidal effect on E: rice flat sedge (rice flat sedge; [4]): 0 (Herbicidal rate of 5% or less (almost no effect))
F: southern crabgrass, herbicidal effect grade (southern crabgrass; [5]): 0 (Herbicidal rate of 5% or less (almost no effect))
G: green foxtail, herbicidal effect grade (green foxtail; [5]): 0 (Herbicidal rate of 5% or less (almost no effect))
H: barnyard grass, herbicidal effect grade (barnyard grass [2]; [5]): 0 (Herbicidal rate of 5% or less (almost no effect))
I: wild oat, herbicidal effect grade (wild oat; [5]): 0 (Herbicidal rate of 5% or less (almost no effect))
J: blackgrass, herbicidal effect grade (blackgrass; [5]): 0 (Herbicidal rate of 5% or less (almost no effect))
K: Italian ryegrass, herbicidal effect grade (Italian ryegrass; [5]): 0 (Herbicidal rate of 5% or less (almost no effect))
L: windgrass, herbicidal effect grade (windgrass; [5]): 0 (Herbicidal rate of 5% or less (almost no effect))
M: velvetleaf, herbicidal effect grade (velvetleaf; [5]): 0 (Herbicidal rate of 5% or less (almost no effect))
N: redroot pigweed, herbicidal effect grade (redroot pigweed; [5]): 3 (Herbicidal rate of 40% or more and less than 70%)
O: lambsquarters, herbicidal effect grade (lambsquarters; [5]): 0 (Herbicidal rate of 5% or less (almost no effect))
P: chickweed, herbicidal effect grade (chickweed; [5]): 3 (Herbicidal rate of 40% or more and less than 70%)
R: persian speedwell, herbicidal effect grade (persian speedwell; [5]): 0 (Herbicidal rate of 5% or less (almost no effect))

CSc1ccccc1-c1sc2c(C)cccc2c1-c1c(O)c(C)nn(C)c1=O [4-116]
herbicidal effect on barnyard grass (H) (barnyard grass [1]): 3 (Herbicidal rate of 40% or more and less than 70%)
herbicidal effect on Chinese sprangletop (D) (Chinese sprangletop): 4 (Herbicidal rate of 70% or more and less than 90%)
herbicidal effect on rice flat sedge (E) (rice flat sedge): 3 (Herbicidal rate of 40% or more and less than 70%)
Herbicidal effect by foliage application, F: southern crabgrass (southern crabgrass; [6]): 0 (Herbicidal rate of 5% or less (almost no effect))
Herbicidal effect by foliage application, G: green foxtail (green foxtail; [6]): 0 (Herbicidal rate of 5% or less (almost no effect))
Herbicidal effect by foliage application, H: barnyard grass (barnyard grass [2]; [6]): 0 (Herbicidal rate of 5% or less (almost no effect))
Herbicidal effect by foliage application, I: wild oat (wild oat; [6]): 0 (Herbicidal rate of 5% or less (almost no effect))
Herbicidal effect by foliage application, J: blackgrass (blackgrass; [6]): 0 (Herbicidal rate of 5% or less (almost no effect))
Herbicidal effect by foliage application, K: Italian ryegrass (Italian ryegrass; [6]): 0 (Herbicidal rate of 5% or less (almost no effect))
Herbicidal effect by foliage application, L: windgrass (windgrass; [6]): 0 (Herbicidal rate of 5% or less (almost no effect))
Herbicidal effect by foliage application, M: velvetleaf (velvetleaf; [6]): 0 (Herbicidal rate of 5% or less (almost no effect))
Herbicidal effect by foliage application, N: redroot pigweed (redroot pigweed; [6]): 0 (Herbicidal rate of 5% or less (almost no effect))
Herbicidal effect by foliage application, O: lambsquarters (lambsquarters; [6]): 0 (Herbicidal rate of 5% or less (almost no effect))
Herbicidal effect by foliage application, P: chickweed (chickweed; [6]): 4 (Herbicidal rate of 70% or more and less than 90%)
Herbicidal effect by foliage application, R: persian speedwell (persian speedwell; [6]): 4 (Herbicidal rate of 70% or more and less than 90%)
